The structures appear in SMILES notation.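 Growth conditions: 96-well plates. Treatment: test compound, 48 hours, 5 concentrations. Analysis: linear interpolation between bracketing concentrations; unreached endpoints set to highest concentration. Abbreviation: GI50, concentration required for 50% inhibition of growth. At the TGI there is no net growth.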

In PubChem BioAssay (NCI) one finds GI50 and TGI data, which are given here for eight molecules.

Some test systems named below: HCT-15 colon; M14 melanoma; MDA-MB-435; RPMI-8226 leukemia; PC-3 prostate; SN12C renal; SNB-75 CNS; HCT-116 colon.
Holding throughout (test): NCI tumour cell line growth inhibition, 48 h

Take `C=CC12CCN(CC1)C(C(O)c1ccnc3ccc(OC)cc13)C2` (configuration not stated): the GI50 in the assay with HCT-15 colon was 96.2 µM; in the assay on M14 melanoma, 87.1 µM; with MDA-MB-435, more than 100 µM; in the assay with RPMI-8226 leukemia, more than 100 µM; in the assay with PC-3 prostate, more than 100 µM; in the assay with SN12C renal, more than 100 µM. Besides, the GI50 was 95.3 µM in the assay on SNB-75 CNS and more than 100 µM in the assay on HCT-116 colon. For the same molecule, the TGI in the assay with HCT-15 colon, in the assay with M14 melanoma, with MDA-MB-435, with RPMI-8226 leukemia, with PC-3 prostate and with SN12C renal was more than 100 µM each time. Besides, the TGI in the assay with SNB-75 CNS and in the assay on HCT-116 colon was more than 100 µM each time.
Consider `O=c1[nH]c(O)c(C=Nc2ccc(-c3nc4ccccc4o3)cc2)c(=O)[nH]1`, for which the GI50 was 32.4 µM in the assay with HCT-15 colon; 50.8 µM in the assay on M14 melanoma; 33.3 µM in the assay with MDA-MB-435; 27.5 µM with RPMI-8226 leukemia; more than 100 µM in the assay on PC-3 prostate; more than 100 µM in the assay on SN12C renal. In addition, the values for the GI50 in the assay with SNB-75 CNS and in the assay with HCT-116 colon were more than 100 µM and 93.6 µM, respectively. In addition, the TGI in the assay with HCT-15 colon, in the assay with M14 melanoma, in the assay on MDA-MB-435, in the assay on RPMI-8226 leukemia, in the assay with PC-3 prostate and in the assay on SN12C renal was more than 100 µM throughout. For the same molecule, the TGI with SNB-75 CNS and with HCT-116 colon was more than 100 µM each time.
On to `COC(=O)c1c(C)cc(OC)c(C/C=C(\C)CCCc2coc(C=C(C)C)c2)c1OC`, for which the TGI in the assay on HCT-15 colon, in the assay on M14 melanoma, in the assay with MDA-MB-435, in the assay on RPMI-8226 leukemia, with PC-3 prostate and in the assay with SN12C renal was more than 100 µM each time. For the same molecule, the TGI in the assay on SNB-75 CNS and in the assay on HCT-116 colon was more than 100 µM throughout.
With `COc1c(C)c(OCC=C(C)C)cc(CO)c1CO`, the TGI in the assay on HCT-15 colon, with M14 melanoma, in the assay on MDA-MB-435, in the assay with RPMI-8226 leukemia, in the assay with PC-3 prostate and in the assay on SN12C renal was more than 100 µM throughout. Also, the TGI in the assay with SNB-75 CNS and in the assay on HCT-116 colon was more than 100 µM in each case.
Turning to `Cc1nc2c(Br)cc(Br)cc2c(=O)n1-c1nnc(-c2cccc(Cl)c2Cl)c(N)n1`, the GI50 in the assay on HCT-15 colon is 15.4 µM; in the assay with M14 melanoma, 4.8 µM; in the assay with MDA-MB-435, 3.8 µM; with RPMI-8226 leukemia, 9.39 µM; in the assay with PC-3 prostate, 23.6 µM; in the assay on SN12C renal, 19 µM. Further, the GI50 is 33.6 µM with SNB-75 CNS and 12.8 µM with HCT-116 colon. Also, the TGI was 50.9 µM in the assay with HCT-15 colon; 22.7 µM in the assay with M14 melanoma; 14.3 µM with MDA-MB-435; 87 µM in the assay on RPMI-8226 leukemia; more than 100 µM with PC-3 prostate; 62 µM in the assay with SN12C renal. In addition, the results for the TGI with SNB-75 CNS and with HCT-116 colon were more than 100 µM and 34.9 µM, respectively.
As for `COC(=O)/C=C/c1cc(OC(C)=O)c2c(c1)C(C(=O)OC)C(c1ccc(OC(C)=O)c(OC(C)=O)c1)O2` (configuration not stated), the GI50 is 0.0445 µM in the assay on HCT-15 colon; 0.0411 µM in the assay on M14 melanoma; 0.0219 µM in the assay with MDA-MB-435; 0.0574 µM in the assay on RPMI-8226 leukemia; 0.371 µM in the assay on PC-3 prostate; 0.253 µM in the assay on SN12C renal. Besides, the GI50 in the assay with SNB-75 CNS was 0.0382 µM; with HCT-116 colon, 0.0499 µM. Moreover, the TGI in the assay with HCT-15 colon is more than 100 µM; in the assay on M14 melanoma it was 15.1 µM; in the assay on MDA-MB-435 it was 0.0606 µM; in the assay with RPMI-8226 leukemia it was 5.25 µM; with PC-3 prostate it was more than 49 µM; in the assay on SN12C renal, more than 42.5 µM. The values for the TGI in the assay on SNB-75 CNS and with HCT-116 colon were 56.7 µM and more than 51.4 µM, respectively.
For `Cc1cccc(NC2=C(Cl)C(=O)c3nc(C)ccc3C2=O)c1`, the GI50 is 0.431 µM in the assay on HCT-15 colon; 1.32 µM with M14 melanoma; 0.218 µM with MDA-MB-435; 1.48 µM in the assay on RPMI-8226 leukemia; 1.29 µM in the assay with PC-3 prostate; 1.17 µM in the assay on SN12C renal. Moreover, the GI50 is 2.73 µM in the assay on SNB-75 CNS and 0.44 µM in the assay with HCT-116 colon. In addition, the TGI in the assay with HCT-15 colon was found to be 2.09 µM; in the assay with M14 melanoma, 2.72 µM; in the assay with MDA-MB-435, 0.469 µM; with RPMI-8226 leukemia it was 5.17 µM; in the assay with PC-3 prostate it was 4.8 µM; in the assay on SN12C renal, 2.5 µM. Moreover, the TGI was determined as 7.33 µM in the assay with SNB-75 CNS and 1.86 µM in the assay on HCT-116 colon.
For the molecule `CCOC(=O)Nc1c(C)nc2ccccn12`, the GI50 in the assay on HCT-15 colon, in the assay with M14 melanoma, in the assay on MDA-MB-435, in the assay on RPMI-8226 leukemia, in the assay with PC-3 prostate and in the assay on SN12C renal was more than 100 µM each time. Also, the GI50 in the assay on SNB-75 CNS and in the assay on HCT-116 colon was more than 100 µM throughout. The TGI with HCT-15 colon, in the assay on M14 melanoma, in the assay with MDA-MB-435, in the assay on RPMI-8226 leukemia, with PC-3 prostate and with SN12C renal was more than 100 µM each time. The TGI in the assay with SNB-75 CNS and in the assay on HCT-116 colon was more than 100 µM throughout.
